{
  "source": "ChEMBL document CHEMBL5653631",
  "about": "“A Potent and Selective ULK1 Inhibitor Suppresses Autophagy and Sensitizes Cancer Cells to Nutrient Stress” (iScience, 2018)",
  "key": {"[1]": {"target": "T1, Serine/threonine-protein kinase Nek9 (Homo sapiens) (UniProt Q8TD19)", "T1 sequence (whole entry)": "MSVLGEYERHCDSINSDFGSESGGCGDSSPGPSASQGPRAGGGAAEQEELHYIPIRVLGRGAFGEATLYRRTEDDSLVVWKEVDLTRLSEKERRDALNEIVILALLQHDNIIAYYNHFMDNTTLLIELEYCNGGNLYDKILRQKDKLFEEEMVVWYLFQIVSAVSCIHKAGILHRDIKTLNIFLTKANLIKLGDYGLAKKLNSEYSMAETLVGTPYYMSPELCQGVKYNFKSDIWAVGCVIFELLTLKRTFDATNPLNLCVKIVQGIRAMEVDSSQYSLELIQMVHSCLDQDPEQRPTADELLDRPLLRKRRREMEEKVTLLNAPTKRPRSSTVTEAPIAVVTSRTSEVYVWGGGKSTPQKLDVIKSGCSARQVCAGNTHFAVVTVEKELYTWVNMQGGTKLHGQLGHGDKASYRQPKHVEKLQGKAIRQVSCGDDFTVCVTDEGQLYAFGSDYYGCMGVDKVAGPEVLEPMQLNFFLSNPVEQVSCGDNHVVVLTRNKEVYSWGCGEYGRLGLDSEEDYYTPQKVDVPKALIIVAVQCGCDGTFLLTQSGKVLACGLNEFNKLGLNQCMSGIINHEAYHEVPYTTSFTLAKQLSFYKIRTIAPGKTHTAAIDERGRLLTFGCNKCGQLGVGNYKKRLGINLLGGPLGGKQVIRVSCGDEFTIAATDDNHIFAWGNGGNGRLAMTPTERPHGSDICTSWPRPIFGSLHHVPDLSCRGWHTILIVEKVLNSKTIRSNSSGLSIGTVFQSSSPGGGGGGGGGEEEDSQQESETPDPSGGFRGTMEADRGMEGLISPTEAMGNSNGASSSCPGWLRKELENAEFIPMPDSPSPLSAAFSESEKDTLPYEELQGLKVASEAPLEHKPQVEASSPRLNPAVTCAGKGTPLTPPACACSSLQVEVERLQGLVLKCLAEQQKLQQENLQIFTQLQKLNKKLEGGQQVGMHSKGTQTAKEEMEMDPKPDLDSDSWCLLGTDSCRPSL", "experiment": "Inhibition of human recombinant NEK9 at 40 nM in presence of ATP by radiometric assay relative to control"}, "[2]": {"target": "T2, Tyrosine-protein kinase Mer (Homo sapiens) (UniProt Q12866)", "T2 sequence (whole entry)": "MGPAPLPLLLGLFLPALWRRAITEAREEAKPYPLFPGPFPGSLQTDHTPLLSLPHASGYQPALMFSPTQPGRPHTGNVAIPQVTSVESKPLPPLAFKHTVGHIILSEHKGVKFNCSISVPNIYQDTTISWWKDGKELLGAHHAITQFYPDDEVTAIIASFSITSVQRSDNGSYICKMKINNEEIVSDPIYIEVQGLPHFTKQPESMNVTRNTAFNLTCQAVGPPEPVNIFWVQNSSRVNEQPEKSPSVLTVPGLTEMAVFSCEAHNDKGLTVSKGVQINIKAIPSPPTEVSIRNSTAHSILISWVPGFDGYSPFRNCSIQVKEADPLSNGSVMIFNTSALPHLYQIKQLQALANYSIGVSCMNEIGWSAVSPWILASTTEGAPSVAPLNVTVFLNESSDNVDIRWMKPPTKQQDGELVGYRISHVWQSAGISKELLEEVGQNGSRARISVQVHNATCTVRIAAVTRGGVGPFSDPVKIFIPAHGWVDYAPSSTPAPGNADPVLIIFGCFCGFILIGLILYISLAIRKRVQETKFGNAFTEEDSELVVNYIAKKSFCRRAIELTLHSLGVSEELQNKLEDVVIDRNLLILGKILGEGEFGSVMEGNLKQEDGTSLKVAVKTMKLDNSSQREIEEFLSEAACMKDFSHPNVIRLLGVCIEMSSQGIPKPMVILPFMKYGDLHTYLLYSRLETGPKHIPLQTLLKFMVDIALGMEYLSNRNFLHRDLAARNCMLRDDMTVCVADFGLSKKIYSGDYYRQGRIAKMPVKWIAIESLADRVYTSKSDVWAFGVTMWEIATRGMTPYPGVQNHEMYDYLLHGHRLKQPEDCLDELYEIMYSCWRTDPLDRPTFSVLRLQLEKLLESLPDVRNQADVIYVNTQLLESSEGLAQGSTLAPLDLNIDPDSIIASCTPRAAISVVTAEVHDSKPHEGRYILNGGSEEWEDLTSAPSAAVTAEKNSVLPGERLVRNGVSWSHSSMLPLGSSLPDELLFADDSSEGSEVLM", "experiment": "Inhibition of human recombinant MER at 500 nM in presence of ATP by radiometric assay relative to control"}, "[3]": {"target": "Non-receptor tyrosine-protein kinase TYK2 (Homo sapiens) (UniProt P29597)", "sequence (P29597 whole entry)": "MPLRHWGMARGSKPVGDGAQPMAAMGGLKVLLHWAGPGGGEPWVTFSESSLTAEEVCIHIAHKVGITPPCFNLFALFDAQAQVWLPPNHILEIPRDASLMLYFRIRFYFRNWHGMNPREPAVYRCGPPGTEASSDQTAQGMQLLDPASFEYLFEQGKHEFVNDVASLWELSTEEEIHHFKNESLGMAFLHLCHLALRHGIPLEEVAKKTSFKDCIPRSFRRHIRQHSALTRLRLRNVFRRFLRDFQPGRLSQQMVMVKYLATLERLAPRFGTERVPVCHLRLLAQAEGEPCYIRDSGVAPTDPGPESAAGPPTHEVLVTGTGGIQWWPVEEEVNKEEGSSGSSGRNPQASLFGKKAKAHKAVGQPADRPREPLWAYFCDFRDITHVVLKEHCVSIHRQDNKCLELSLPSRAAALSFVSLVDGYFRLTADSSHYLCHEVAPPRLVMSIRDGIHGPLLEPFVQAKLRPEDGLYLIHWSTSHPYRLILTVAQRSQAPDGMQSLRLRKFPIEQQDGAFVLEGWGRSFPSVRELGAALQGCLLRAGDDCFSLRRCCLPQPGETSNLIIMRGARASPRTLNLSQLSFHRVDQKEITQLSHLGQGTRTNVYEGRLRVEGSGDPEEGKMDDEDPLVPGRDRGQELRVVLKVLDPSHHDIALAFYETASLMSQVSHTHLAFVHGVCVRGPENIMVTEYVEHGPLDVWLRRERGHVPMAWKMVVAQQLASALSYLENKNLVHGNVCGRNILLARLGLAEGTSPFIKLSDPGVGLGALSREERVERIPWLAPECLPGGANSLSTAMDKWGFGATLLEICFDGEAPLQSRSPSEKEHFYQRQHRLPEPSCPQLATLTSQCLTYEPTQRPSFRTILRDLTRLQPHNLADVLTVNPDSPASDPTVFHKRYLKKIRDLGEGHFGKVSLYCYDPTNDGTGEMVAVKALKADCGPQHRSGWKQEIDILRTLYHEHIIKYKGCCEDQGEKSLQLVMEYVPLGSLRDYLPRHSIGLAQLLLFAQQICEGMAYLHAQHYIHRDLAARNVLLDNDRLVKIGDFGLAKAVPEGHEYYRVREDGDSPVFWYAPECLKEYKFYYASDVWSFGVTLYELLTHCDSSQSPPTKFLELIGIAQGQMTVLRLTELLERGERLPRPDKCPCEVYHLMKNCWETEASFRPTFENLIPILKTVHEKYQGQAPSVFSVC", "experiment": "Inhibition of human recombinant TYK2 at 500 nM in presence of ATP by radiometric assay relative to control"}, "[4]": {"target": "T3, Serine/threonine-protein kinase DCLK2 (Homo sapiens) (UniProt Q8N568)", "T3 sequence (whole entry)": "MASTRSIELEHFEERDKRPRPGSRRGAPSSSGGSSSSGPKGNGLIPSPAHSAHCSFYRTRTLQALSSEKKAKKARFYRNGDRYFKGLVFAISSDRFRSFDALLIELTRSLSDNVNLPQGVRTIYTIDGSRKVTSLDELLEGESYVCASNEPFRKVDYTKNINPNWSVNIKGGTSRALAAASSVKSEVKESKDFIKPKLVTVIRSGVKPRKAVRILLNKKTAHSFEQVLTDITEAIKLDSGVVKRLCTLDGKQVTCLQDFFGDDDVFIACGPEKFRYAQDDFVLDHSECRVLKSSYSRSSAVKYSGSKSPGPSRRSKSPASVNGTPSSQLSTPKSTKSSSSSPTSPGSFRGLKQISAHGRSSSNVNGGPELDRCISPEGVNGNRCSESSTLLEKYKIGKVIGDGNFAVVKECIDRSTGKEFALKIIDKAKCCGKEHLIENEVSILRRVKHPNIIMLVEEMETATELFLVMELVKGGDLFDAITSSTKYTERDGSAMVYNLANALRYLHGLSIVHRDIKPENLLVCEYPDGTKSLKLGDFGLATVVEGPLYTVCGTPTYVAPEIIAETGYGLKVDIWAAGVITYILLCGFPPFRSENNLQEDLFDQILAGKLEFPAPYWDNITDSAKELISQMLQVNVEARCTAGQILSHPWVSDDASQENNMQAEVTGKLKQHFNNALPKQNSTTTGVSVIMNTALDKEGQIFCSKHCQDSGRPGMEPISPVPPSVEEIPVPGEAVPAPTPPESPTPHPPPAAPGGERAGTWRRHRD", "experiment": "Inhibition of human recombinant DCAMKL2 at 500 nM related to control ULK1"}, "[5]": {"target": "Receptor-type tyrosine-protein kinase FLT3 (Homo sapiens) (UniProt P36888)", "sequence (P36888 whole entry)": "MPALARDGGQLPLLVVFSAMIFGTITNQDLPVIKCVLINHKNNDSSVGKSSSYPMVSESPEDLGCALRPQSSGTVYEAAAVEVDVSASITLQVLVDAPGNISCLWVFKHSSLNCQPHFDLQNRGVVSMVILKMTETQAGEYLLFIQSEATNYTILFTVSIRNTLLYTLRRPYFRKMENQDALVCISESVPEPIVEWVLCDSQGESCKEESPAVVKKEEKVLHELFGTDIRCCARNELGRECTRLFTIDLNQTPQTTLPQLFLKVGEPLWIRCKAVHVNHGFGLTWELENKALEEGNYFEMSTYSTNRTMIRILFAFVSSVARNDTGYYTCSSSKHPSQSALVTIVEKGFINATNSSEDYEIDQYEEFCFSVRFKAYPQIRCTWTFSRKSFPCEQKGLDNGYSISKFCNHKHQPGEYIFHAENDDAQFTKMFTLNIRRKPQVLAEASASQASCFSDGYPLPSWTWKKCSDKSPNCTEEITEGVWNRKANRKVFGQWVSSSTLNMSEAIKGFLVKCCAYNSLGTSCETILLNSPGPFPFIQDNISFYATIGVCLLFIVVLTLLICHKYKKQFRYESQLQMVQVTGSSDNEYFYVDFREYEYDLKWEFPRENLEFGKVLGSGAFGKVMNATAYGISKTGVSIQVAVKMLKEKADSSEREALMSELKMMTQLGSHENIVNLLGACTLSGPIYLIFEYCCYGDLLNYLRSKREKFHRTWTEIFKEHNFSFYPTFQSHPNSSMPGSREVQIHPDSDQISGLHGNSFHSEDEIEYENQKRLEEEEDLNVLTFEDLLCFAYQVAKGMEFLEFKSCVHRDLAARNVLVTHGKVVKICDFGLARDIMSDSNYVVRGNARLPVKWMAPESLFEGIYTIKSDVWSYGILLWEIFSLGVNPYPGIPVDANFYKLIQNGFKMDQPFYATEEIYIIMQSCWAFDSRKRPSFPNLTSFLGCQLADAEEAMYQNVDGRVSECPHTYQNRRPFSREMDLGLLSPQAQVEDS", "experiment": "Inhibition of human recombinant FLT3 at 15 nM in presence of ATP by radiometric assay relative to control"}, "[6]": {"target": "Dual specificity tyrosine-phosphorylation-regulated kinase 1B (Homo sapiens) (UniProt Q9Y463)", "sequence (Q9Y463 whole entry, looked up)": "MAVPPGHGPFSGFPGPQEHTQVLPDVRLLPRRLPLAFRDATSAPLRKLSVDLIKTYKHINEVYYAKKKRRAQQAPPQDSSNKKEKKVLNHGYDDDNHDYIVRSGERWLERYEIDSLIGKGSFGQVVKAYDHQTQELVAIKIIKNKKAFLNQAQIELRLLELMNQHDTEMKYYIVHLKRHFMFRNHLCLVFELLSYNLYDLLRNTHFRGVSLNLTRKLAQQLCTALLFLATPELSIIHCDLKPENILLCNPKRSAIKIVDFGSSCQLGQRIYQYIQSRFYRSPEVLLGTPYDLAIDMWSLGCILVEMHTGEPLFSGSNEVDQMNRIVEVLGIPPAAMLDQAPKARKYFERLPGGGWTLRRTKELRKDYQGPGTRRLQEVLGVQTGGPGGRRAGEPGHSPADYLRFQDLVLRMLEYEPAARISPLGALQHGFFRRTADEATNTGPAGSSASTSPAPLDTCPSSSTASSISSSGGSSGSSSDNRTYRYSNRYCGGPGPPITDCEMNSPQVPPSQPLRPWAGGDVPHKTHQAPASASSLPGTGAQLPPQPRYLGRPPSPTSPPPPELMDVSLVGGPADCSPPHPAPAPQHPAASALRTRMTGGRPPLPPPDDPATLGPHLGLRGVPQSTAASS", "experiment": "Inhibition of human recombinant DYRK1B at 15 nM related to control ULK1"}},
  "data": [
    {"smiles": "O=C(N[C@@H](C1CC1)C(F)(F)F)c1cc(-c2cnn3cc(-c4ccc(F)cc4)cnc23)cs1", "values": [
      {"measurement": "inhibition", "setting": "[1]", "value": 5, "unit": "%"}
    ]},
    {"smiles": "CNC(=O)c1ccccc1Oc1nc(Nc2cc(OC)c(OC)c(OC)c2)ncc1Br", "values": [
      {"measurement": "inhibition", "setting": "[2]", "value": 9, "unit": "%"},
      {"measurement": "inhibition", "setting": "[3]", "value": 78, "unit": "%"},
      {"measurement": "fold change (FC)", "setting": "[4]", "value": 0}
    ]},
    {"smiles": "CC(C)[C@H](NC(=O)c1cc(-c2cnn3cc(-c4ccc(OCCN5CCCCC5)cc4)cnc23)cs1)C(F)(F)F", "values": [
      {"measurement": "inhibition", "setting": "[5]", "value": 68, "unit": "%"},
      {"measurement": "fold change (FC)", "setting": "[6]", "value": 0.74}
    ]}
  ]
}
